Measurements published in patent US20030190344A1, “Animal feed or feed additive as performance enhancer or appetite enhancer for live stock” (priority 2000, published 2003).

System: aromatic aminoacid-decarboxylase
Assay: Blockade of aromatic aminoacid-decarboxylase activity
Assay type: biochemical
Source text: This blockade of the aromatic aminoacid-decarboxylase is irreversible and thus is of special interest since it is maintained as long as the enzyme molecules are in the effective range of the benzophenanthridine alkaloids. Sanguinarine and chelerythrine, representative of the benzophenanthridine alkaloids, have an aromatic structure which is similar to that of the aromatic amino acids. The enzyme “aromatic aminoacid-decarboxylase” confuses the ultimate structure of the benzophenanthridine alkaloid with the ring structure of the aromatic amino acid and fits it rather than the amino acids at its active center.

## COc1ccc2c(c[n+](C)c3c4cc5c(cc4ccc23)OCO5)c1OC [chelerythrine]
  block the activity of the aromatic aminoacid-decarboxylase: 92%
  reversibility of blockade of the aromatic aminoacid-decarboxylase: irreversible
